{
  "source": "patent US9365548B2",
  "about": "“Benzoimidazol-2-yl pyrimidines and pyrazines as modulators of the histamine H4 receptor” (Janssen Pharmaceutica NV, priority 2006, dated 2016)",
  "note": "pKi: −log10 of the molar value.",
  "data": [
    {"molecular_target": "T1, Recombinant Human Histamine H4 Receptor (Homo sapiens, UniProt Q9H3N8)", "T1 construct": "expressed in transfected cells; host or cells: SK-N-MC cells or COS7 cells, transiently transfected; cell membranes used", "T1 sequence (Q9H3N8 whole entry)": "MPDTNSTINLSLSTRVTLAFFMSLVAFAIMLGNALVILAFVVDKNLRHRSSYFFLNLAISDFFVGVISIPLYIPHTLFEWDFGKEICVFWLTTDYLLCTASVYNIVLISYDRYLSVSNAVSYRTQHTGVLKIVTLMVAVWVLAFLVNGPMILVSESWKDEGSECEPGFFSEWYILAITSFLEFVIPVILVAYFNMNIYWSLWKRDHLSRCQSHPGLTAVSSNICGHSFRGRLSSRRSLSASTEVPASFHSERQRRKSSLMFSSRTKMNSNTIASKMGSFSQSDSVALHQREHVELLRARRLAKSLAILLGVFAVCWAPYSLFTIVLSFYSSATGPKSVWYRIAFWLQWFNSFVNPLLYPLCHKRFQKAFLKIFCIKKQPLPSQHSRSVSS", "assay": "Binding Assay on Recombinant Human Histamine H4 Receptor", "conditions": "competition binding with 3H-histamine, membranes of SK-N-MC or COS7 cells expressing human histamine H4 receptor; Ki by Cheng-Prusoff (KD 5 nM, ligand 5 nM); average of results obtained", "description": "Additional examples of embodiments of this invention are provided by hemitartrate salts of compounds of Formula (I) and by hydrates, such as monohydrates and dihydrates, of compounds of Formula (I). […]", "values": [
      {"smiles": "Cc1nc(NCCCC2CCN(C)CC2)ncc1-c1nc2c(C)c(F)ccc2[nH]1", "note": "[Example 1, [5-(5-Fluoro-4-methyl-1H-benzoimidazol-2-yl)-4-methyl-pyrimidin-2-yl]-[3-(1-methyl-piperidin-4-yl)-propyl]-amine]", "pKi": 7.68},
      {"smiles": "Cc1cc(C)c2nc(-c3cnc(NCCCC4CCN(C)CC4)nc3C)[nH]c2c1", "note": "[Example 2, [5-(4,6-Dimethyl-1H-benzoimidazol-2-yl)-4-methyl-pyrimidin-2-yl]-[3-(1-methyl-piperidin-4-yl)-propyl]-amine]", "pKi": 7.96},
      {"smiles": "Cc1nc(NCCCC2CCN(C)CC2)ncc1-c1nc2c(C)cc(F)cc2[nH]1", "note": "[Example 3, [5-(6-Fluoro-4-methyl-1H-benzoimidazol-2-yl)-4-methyl-pyrimidin-2-yl]-[3-(1-methyl-piperidin-4-yl)-propyl]-amine]", "pKi": 8.40},
      {"smiles": "Cc1nc(NCCCC2CCN(C)CC2)ncc1-c1nc2c(F)c(F)ccc2[nH]1", "note": "[Example 4, [5-(4,5-Difluoro-1H-benzoimidazol-2-yl)-4-methyl-pyrimidin-2-yl]-[3-(1-methyl-piperidin-4-yl)-propyl]-amine]", "pKi": 7.96},
      {"smiles": "Cc1ccc2[nH]c(-c3cnc(NCCCC4CCN(C)CC4)nc3C)nc2c1C", "note": "[Example 5, [5-(4,5-Dimethyl-1H-benzoimidazol-2-yl)-4-methyl-pyrimidin-2-yl]-[3-(1-methyl-piperidin-4-yl)-propyl]-amine]", "pKi": 8.40},
      {"smiles": "Cc1nc(NCCCC2CCN(C)CC2)ncc1-c1nc2c(F)cc(F)cc2[nH]1", "note": "[Example 6, [5-(4,6-Difluoro-1H-benzoimidazol-2-yl)-4-methyl-pyrimidin-2-yl]-[3-(1-methyl-piperidin-4-yl)-propyl]-amine]", "pKi": 7.77},
      {"smiles": "Cc1cc(C)c2nc(-c3cnc(N(C)CCCC4CCN(C)CC4)nc3C)[nH]c2c1", "note": "[Example 7, [5-(4,6-Dimethyl-1H-benzoimidazol-2-yl)-4-methyl-pyrimidin-2-yl]-methyl-[3-(1-methyl-piperidin-4-yl)-propyl]-amine]", "pKi": 7.08},
      {"smiles": "CCc1nc(NCCCC2CCN(C)CC2)ncc1-c1nc2c(F)c(F)ccc2[nH]1", "note": "[Example 9, [5-(4,5-Difluoro-1H-benzoimidazol-2-yl)-4-ethyl-pyrimidin-2-yl]-[3-(1-methyl-piperidin-4-yl)-propyl]-amine]", "pKi": 6.68},
      {"smiles": "CCCc1nc(NCCCC2CCN(C)CC2)ncc1-c1nc2c(F)c(C)ccc2[nH]1", "note": "[Example 10, [5-(4-Fluoro-5-methyl-1H-benzoimidazol-2-yl)-4-propyl-pyrimidin-2-yl]-[3-(1-methyl-piperidin-4-yl)-propyl]-amine]", "pKi": 6.33},
      {"smiles": "Cc1ccc2[nH]c(-c3cnc(NCCCC4CCN(C)CC4)nc3C(C)C)nc2c1C", "note": "[Example 11, [5-(4,5-Dimethyl-1H-benzoimidazol-2-yl)-4-isopropyl-pyrimidin-2-yl]-[3-(1-methyl-piperidin-4-yl)-propyl]-amine]", "pKi": 6.44},
      {"smiles": "Cc1cc(C)c2nc(-c3cnc(NCCCC4CCN(C)CC4)nc3C(C)C)[nH]c2c1", "note": "[Example 12, [5-(4,6-Dimethyl-1H-benzoimidazol-2-yl)-4-isopropyl-pyrimidin-2-yl]-[3-(1-methyl-piperidin-4-yl)-propyl]-amine]", "pKi": 6.70},
      {"smiles": "Cc1ccc2[nH]c(-c3cnc(NCCCC4CCN(C)CC4)nc3C3CCC3)nc2c1C", "note": "[Example 13, [4-Cyclobutyl-5-(4,5-dimethyl-1H-benzoimidazol-2-yl)-pyrimidin-2-yl]-[3-(1-methyl-piperidin-4-yl)-propyl]-amine]", "pKi": 6.37},
      {"smiles": "CN1CCC(CCCNc2ncc(-c3nc4c(F)c(F)ccc4[nH]3)c(C3CCC3)n2)CC1", "note": "[Example 14, [4-Cyclobutyl-5-(4,5-difluoro-1H-benzoimidazol-2-yl)-pyrimidin-2-yl]-[3-(1-methyl-piperidin-4-yl)-propyl]-amine]", "pKi": 6.00},
      {"smiles": "Cc1c(F)ccc2[nH]c(-c3cnc(NCCCC4CCN(C)CC4)nc3)nc12", "note": "[Example 15, [5-(5-Fluoro-4-methyl-1H-benzoimidazol-2-yl)-pyrimidin-2-yl]-[3-(1-methyl-piperidin-4-yl)-propyl]-amine]", "pKi": 6.54}
    ]}
  ]
}
